Test results taken from ChEMBL document CHEMBL5512633, “Hit-to-lead optimization of 2-aminoquinazolines as anti-microbial agents against Leishmania donovani” (Eur J Med Chem, 2024).
Blank lines part the entries; values can stand above or below the molecule they belong to.

Legend:
[1] = tested on: Leishmania donovani; test: Antileishmanial activity against Leishmania donovani MHOM/IN/1983/AG83 axenic amastigotes assessed as inhibition of growth at 20 uM incubated for 48 hrs by flow cytometric analysis relative to control; type: functional
[2] = Cytotoxicity against human THP-1 cells incubated for 72 hrs by DAPI staining based analysis; type: toxicity, cell-based
[3] = tested on: Leishmania donovani; test: Antileishmanial activity against Leishmania donovani MHOM/IN/1983/AG83 axenic amastigotes assessed as inhibition of growth incubated for 48 hrs by flow cytometric analysis; type: functional, organism-based; conditions: MHOM/IN/1983/AG83, 48 h
[4] = Cytotoxicity against human HepG2 cells incubated for 48 hrs by PI staining based flow cytometric analysis; type: toxicity, cell-based
[5] = Cytotoxicity against human HepG2 cells assessed as inhibition of cell growth at 80 uM incubated for 48 hrs by PI staining based flow cytometric analysis relative to control; type: toxicity
[6] = Selectivity index, ratio of CC50 for cytotoxicity against human HepG2 cells to IC50 for antileishmanial activity against Leishmania donovani MHOM/IN/1983/AG83 axenic amastigotes; type: toxicity, cell-based; conditions: read-out: Ratio CC50/IC50
[7] = Lipophilicity, logD of compound in 1-octanol and phosphate buffer at pH 7.4 by HPLC-UV analysis; type: physicochemical; conditions: 1-octanol/phosphate buffer
[8] = Stability in human plasma assessed as compound remaining measured after 2 hrs by LC-MS/MS analysis; type: ADME, cell-free; conditions: read-out: Stability
[9] = Stability in mouse plasma assessed as compound remaining measured after 2 hrs by LC-MS/MS analysis; type: ADME, cell-free; conditions: read-out: Stability
[10] = Metabolic stability in human liver microsomes assessed as half-life preincubated for 10 mins and measured after 60 mins by LC-MS/MS analysis; type: ADME, Microsome
[11] = Metabolic stability in mouse liver microsomes assessed as half-life preincubated for 10 mins and measured after 60 mins by LC-MS/MS analysis; type: ADME, Microsome
[12] = Metabolic stability in human liver microsomes assessed as hepatic blood flow preincubated for 10 mins and measured after 60 mins by LC-MS/MS analysis; type: ADME, Microsome; conditions: read-out: QH
[13] = Metabolic stability in mouse liver microsomes assessed as hepatic blood flow preincubated for 10 mins and measured after 60 mins by LC-MS/MS analysis; type: ADME, Microsome; conditions: read-out: QH

SMILES: COc1cc2c(N3CCCCC3)nc(NCc3cccc(Cl)c3)nc2cc1OC1CCCC1
inhibition at 20 µM [1]: ~12%
CC50 at 72 h [2]: 43.8 µM

SMILES: COc1cc2c(N3CCCCC3)nc(NCc3cccc(F)c3)nc2cc1OC1CCCC1
inhibition at 20 µM [1]: ~40.8%
CC50 at 72 h [2]: > 3 µM

SMILES: COc1cc2c(N3CCCCC3)nc(Nc3ccc(C(F)(F)F)cc3)nc2cc1OC1CCCC1
inhibition at 20 µM [1]: ~35.3%
CC50 at 72 h [2]: > 50 µM

logD [7]: 4.64
remaining at 2 h [8]: 61%
remaining at 2 h [9]: 44.3%
half-life [10]: 23.8 min
half-life [11]: 19.4 min
hepatic extraction ratio at 1 h [12]: 0.575
hepatic extraction ratio at 1 h [13]: 0.494
SMILES: COc1cc2c(N3CCCCC3)nc(NC(=O)c3ccc(F)cc3)nc2cc1OC1CCCC1
IC50 [3]: 5.43 µM
CC50 at 72 h [2]: 89.5 µM
CC50 at 48 h [4]: > 80 µM
inhibition at 48 h, 80 µM [5]: 10.8%
selectivity ratio [6]: > 15
